# pIC50: −log10 of the molar value. Read-outs that look alike come from different tables or passages of the source.
# How the values were obtained:
# [1] = biological target: T1, EED (1-441)-His protein (Homo sapiens, UniProt O75530); experiment: EED-H3K27Me3 peptide competition binding assay by AlphaScreen
# T1 construct: 30 nM EED (1-441)-His protein
# Protocol: EED-H3K27Me3 Peptide Competition Binding Assay by AlphaScreen (α-Screen)
# To assess the compounds' potency in the EED-H3K27Me3 competition binding assay, compounds were serially diluted 3-fold in DMSO to obtain a total of twelve concentrations. Then compounds at each concentration (75 nL of each) were transferred by Mosquito into a 384-well Perkin Elmer ProxiPlate 384 plus plates. 8 uL of solutions containing 30 nM EED (1-441)-His protein and 15 nM biotin-H3K27Me3 (19-33) peptide in the buffer (25 mM HEPES, pH 8, 0.02% Tween-20, 0.5% BSA) were added to the wells and then incubated with compound for 20 min. AlphaScreen detection beads mix was prepared immediately before use by mixing nickel chelate acceptor beads and streptavidin donor beads in a 1:1 ratio (Perkin Elmer, Product No. 6760619C/M/R) into the buffer described above. Then 4 μL of detection beads mix was added to the plate and incubate in the dark at the rt for 1 h. The final concentration of donor and acceptor beads was 10 μg/mL for each. Plates were read on EnVision (PerkinElmer) using the AlphaScreen setting adapted for optimal signal detection with a 615 nm filter, after sample excitation at 680 nm. The emission signal at 615 nm was used to quantify compounds inhibition. AlphaScreen signals were normalized based on the reading coming from the positive (maximum signal control) and negative controls (minimum signal control) to give percentage of activities left. The data were then fit to a dose response equation using the program Helios (Novartis) to get the IC50 values. Helios is a Novartis in-house assay data analysis software using the methods described by Normolle, D. P., Statistics in Medicine, 12:2025-2042 (1993); Formenko, I. et al, Computer Methods and Programs in Biomedicine, 82, 31-37 (2006); Sebaugh, J. L., Pharmaceutical Statistics, 10:128-134 (2011); Kelly, C. et al., Biometrics, 46(4):1071-1085 (1990); and Kahm, M. et al., Journal of Statistical Software, 33 (7): (2010) (grofit: Fitting Biological Growth Curves with R, pages 1-21, available at http://www.jstatsoft.org/).
# [2] = tested on: H3K27 methylation in G401 cell; experiment: ELISA (H3K27 methylation) assay in G401 cells; format: cell-based, human; conditions: Homo sapiens
# Protocol: Compounds of the present invention were assessed for their ability to inhibit PRC2 activity in a pentameric complex of EZH2, SUZ12, EED, Rbap48 and AEBP in biochemical assays. The ability of compounds of the present invention to inhibit cellular activity of PRC2 was assessed by analysing histone H3 lysine 27 methylation in human cell lines. The ability of compounds of the present invention to inhibit cancers was derived from their ability to modulate activity in human cancer cell lines bearing specific dependence to PRC2 activity to maintain cancerous growth.
# ELISA (H3K27 Methylation) Assay
# Representative compounds of the present invention were serially and separately diluted 3-fold in DMSO to obtain a total of eight or twelve concentrations. Then the compounds were added to G401 cell cultured in 384-well plate at 1:500 dilution to obtain the highest concentration of 20 μM. The cells were further cultured for 48 h before ELISA procedure.
# Histone extraction: Cells, in 384-well plate, were washed with PBS (10×PBS buffer (80 g NaCl (Sigma, S3014), 2 g KCl (Sigma, 60128), 14.4 g Na2HPO4 (Sigma, S5136), 2.4 g KH2PO4 (Sigma, P9791) to 1 L water, pH to 7.4) and lysed with the addition of lysis buffer (0.4N HCl; 45 μL per well). The plate was gently agitated at 4° C. for 30 min. The cell lysate was neutralized with neutralization buffer (0.5 M sodium phosphate dibasic, pH 12.5, 1 mM DTT; 36 μL per well). The plate was agitated to ensure the lysates were well mixed prior to the ELISA protocol.
# ELISA protocol: Cell lysates were transferred to the wells of a 384-well plate and the final volume was adjusted to 50 μL per well with PBS. The plate was sealed, centrifuged at 2,000 rpm for 2 min and incubated at 4° C. for about 16 h. The plate was washed with TBST buffer (1×TBS (10×TBS: 24.2 g Tris (Sigma, T6066), 80 g NaCl (Sigma, S3014) to 1 L of water and adjust pH to 7.6 with HCl) with 0.1% Tween-20). Blocking buffer (TBST, 5% BSA; 50 μL per well) was added and the plate was incubated for 1 h at rt. The blocking buffer was removed and primary antibody was added (30 μL per well). The following dilutions were performed with blocking buffer: for anti-H3K27me3 antibody (Cell Signaling Technology, #9733), dilution was 1:1000; for anti-H3K27me2 antibody (Cell Signaling Technology, #9288), dilution was 1:100; for anti-H3 antibody (Abcam, Cat #24834), dilution was 1:1000. The primary antibody was incubated in the plate at rt for 1 h. The wells were washed with TBST and incubated with secondary antibody for 1 h at rt. For secondary antibodies, the following dilutions were carried out with blocking buffer: anti-rabbit antibody (Jackson ImmunoResearch, #111-035-003), dilution was 1:2000; and anti-mouse antibody (Cell signaling technology, #7076), dilution was 1:1000. After 1 h of incubation at rt, the wells were washed with TBST. ECL substrate (Pierce, #34080) was added at 30 μL per well and the plates were centrifuged at 2,000 rpm for 2 min. The signal was read using a PerkinElmer Envision Reader. The H3K27 methylation readouts were normalized using H3 signal and then percentage inhibition was calculated against the samples treated with DMSO. The data were then fit to a dose response curve using the program Helios to get the IC50 values of the test compound.
# [3] = EED-H3K27Me3 peptide competition, AlphaScreen, read-out: (a) IC50 EED Alphascreen binding Qualified
# [4] = G-401, H3K27 methylation ELISA, read-out: (c) IC50 ELISA Qualified
# [5] = read-out: (a) IC50, EED Alphascreen binding Qualified
# [6] = G-401, read-out: (c) IC50, ELISA Qualified
# T1 sequence (O75530 whole entry): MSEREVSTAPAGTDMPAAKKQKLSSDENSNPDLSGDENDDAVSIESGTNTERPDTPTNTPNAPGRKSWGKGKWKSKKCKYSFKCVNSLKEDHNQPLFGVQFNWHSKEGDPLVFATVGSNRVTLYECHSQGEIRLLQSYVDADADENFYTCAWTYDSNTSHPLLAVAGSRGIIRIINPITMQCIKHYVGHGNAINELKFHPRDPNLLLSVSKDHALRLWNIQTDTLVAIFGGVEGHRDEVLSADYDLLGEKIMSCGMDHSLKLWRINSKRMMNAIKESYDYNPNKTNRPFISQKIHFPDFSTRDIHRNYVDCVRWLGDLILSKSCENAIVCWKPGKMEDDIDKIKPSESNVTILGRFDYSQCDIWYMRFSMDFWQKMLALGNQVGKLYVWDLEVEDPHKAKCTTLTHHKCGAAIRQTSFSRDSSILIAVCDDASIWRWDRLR
"pIC50 [1, 3]","pIC50 [2, 4]","pIC50 [1, 5]","pIC50 [2, 6]",SMILES
–,–,6.73,5.99,"COc1cc(F)ccc1CNc1ccc(-c2ccc(NS(C)(=O)=O)cc2)c2nncn12 [Example 85, N-(4-(5-((4-fluoro-2-methoxybenzyl)amino)-[1,2,4]triazolo[4,3-a]pyridin-8-yl)phenyl)methane sulfonamide]"
7.91,7.81,–,–,"COc1cccc(F)c1CNc1ccc(-c2cnc(N3CCOCC3)cc2C)c2nncn12 [Example 262, N-(2-fluoro-6-methoxybenzyl)-8-(4-methyl-6-morpholinopyridin-3-yl)-[1,2,4]triazolo[4,3-a]pyridin-5-amine]"
–,–,6.75,5.93,"COc1cc(F)ccc1CNc1ccc(-c2ccc(S(=O)(=O)N(C)C)cc2)c2nncn12 [Example 84, 4-(5-((4-fluoro-2-methoxybenzyl)amino)-[1,2,4]triazolo[4,3-a]pyridin-8-yl)-N,N-dimethylbenzene sulfonamide]"
–,–,6.90,6.93,"COc1cccc(F)c1CNc1ccc(-c2cnn(CCO)c2)c2nncn12 [Example 145, 2-(4-(5-((2-fluoro-6-methoxybenzyl)amino)-[1,2,4]triazolo[4,3-a]pyridin-8-yl)-1H-pyrazol-1-yl)ethanol]"
6.86,6.66,–,–,"COc1cccc(F)c1CNc1ccc(-c2ccc(Cl)cc2Cl)c2nncn12 [Example 224, 8-(2,4-dichlorophenyl)-N-(2-fluoro-6-methoxybenzyl)-[1,2,4]triazolo[4,3-a]pyridin-5-amine]"
6.38,6.79,–,–,"COc1cccc(F)c1CNc1ccc(-c2cncc(C(C)O)c2)c2nncn12 (stereo not drawn) [Example 197, 1-(5-(5-((2-fluoro-6-methoxybenzyl)amino)-[1,2,4]triazolo[4,3-a]pyridin-8-yl)pyridin-3-yl)ethanol]"
–,–,6.86,6.52,"COc1cc(F)ccc1CNc1ccc(-c2ccncc2)c2nncn12 [Example 92, N-(4-fluoro-2-methoxybenzyl)-8-(pyridin-4-yl)-[1,2,4]triazolo[4,3-a]pyridin-5-amine]"
6.75,6.95,–,–,"COc1cc(CNc2ccc(-c3cccnc3C)c3nncn23)c(F)cc1F [Example 285, N-(2,4-difluoro-5-methoxybenzyl)-8-(2-methylpyridin-3-yl)-[1,2,4]triazolo[4,3-a] pyridin-5-amine]"
–,–,5.54,5.09,"COc1cc(F)c(F)cc1CNc1ccc(-c2ccc(CN(C)C)cc2)c2nncn12 [Example 103, N-(4,5-difluoro-2-methoxybenzyl)-8-(4-((dimethylamino)methyl)phenyl)-[1,2,4]triazolo[4,3-a] pyridin-5-amine]"
7.59,–,–,–,"COc1cc(F)cc(F)c1CNc1ccc(-c2cnc(OC3CC3)nc2C)c2nncn12 [Example 344, 8-(2-cyclopropoxy-4-methylpyrimidin-5-yl)-N-(2,4-difluoro-6-methoxybenzyl)-[1,2,4]triazolo[4,3-a]pyridin-5-amine]"

# Further lines, the compound ahead of its results:
SMILES,"pIC50 [1, 3]","pIC50 [2, 4]","pIC50 [1, 5]","pIC50 [2, 6]"
"COc1cccc(F)c1CNc1ccc(-c2ccnc(C(F)(F)F)c2)c2nncn12 [Example 264, N-(2-fluoro-6-methoxybenzyl)-8-(2-(trifluoromethyl)pyridin-4-yl)-[1,2,4]triazolo[4,3-a] pyridin-5-amine]",7.83,7.83,–,–
"COc1ccccc1CNc1ccc(-c2ccc(NC(C)=O)cc2)c2nncn12 [Example 80, N-(4-(5-((2-methoxybenzyl)amino)-[1,2,4]triazolo[4,3-a]pyridin-8-yl)phenyl) acetamide]",–,–,6.65,6.11
"Cc1cccc(F)c1CNc1ccc(-c2cccnc2C)c2nncn12 [Example 331, N-(2-fluoro-6-methylbenzyl)-8-(2-methylpyridin-3-yl)-[1,2,4]triazolo[4,3-a] pyridin-5-amine]",6.34,6.28,–,–
"COc1cc(F)ccc1CNc1ccc(-c2ccc(S(C)(=O)=O)nc2)c2nncn12 [Example 134, N-(4-fluoro-2-methoxybenzyl)-8-(6-(methylsulfonyl)pyridin-3-yl)-[1,2,4]triazolo[4,3-a] pyridin-5-amine]",–,–,6.75,6.27
"COc1cccc(F)c1CNc1ccc(-c2cnccc2C(F)(F)F)c2nncn12 [Example 202, N-(2-fluoro-6-methoxybenzyl)-8-(4-(trifluoromethyl)pyridin-3-yl)-[1,2,4]triazolo[4,3-a] pyridin-5-amine]",6.57,6.50,–,–
"COc1cc(F)ccc1CNc1ccc(-c2cnc(N3CCN(C(C)C)CC3)nc2)c2nncn12 [Example 104, N-(4-fluoro-2-methoxybenzyl)-8-(2-(4-isopropylpiperazin-1-yl)pyrimidin-5-yl)-[1,2,4]triazolo[4,3-a] pyridin-5-amine]",–,–,6.80,6.88
"COc1cc(F)ccc1CNc1ccc(-c2cnc(N3CCN(C(C)C)CC3)c(C(F)(F)F)c2)c2nncn12 [Example 90, N-(4-fluoro-2-methoxybenzyl)-8-(6-(4-isopropylpiperazin-1-yl)-5-(trifluoromethyl)pyridin-3-yl)-[1,2,4]triazolo[4,3-a] pyridin-5-amine]",–,–,6.39,5.67
"COc1cc(F)ccc1CNc1ccc(-c2cnc(N3CCN(C(C)C)CC3)c(Cl)c2)c2nncn12 [Example 97, 8-(5-chloro-6-(4-isopropylpiperazin-1-yl)pyridin-3-yl)-N-(4-fluoro-2-methoxybenzyl)-[1,2,4]triazolo[4,3-a] pyridin-5-amine]",–,–,6.98,6.11
"COc1cccc(F)c1CNc1ccc(-c2ccccc2C(F)(F)F)c2nncn12 [Example 193, N-(2-fluoro-6-methoxybenzyl)-8-(2-(trifluoromethyl)phenyl)-[1,2,4]triazolo[4,3-a]pyridin-5-amine]",6.55,6.15,–,–
"CCc1ccncc1-c1ccc(NCc2c(F)cc(F)cc2OC)n2cnnc12 [Example 307, N-(2,4-difluoro-6-methoxybenzyl)-8-(4-ethylpyridin-3-yl)-[1,2,4]triazolo[4,3-a] pyridin-5-amine]",6.69,6.65,–,–

# From patent US10689378B2, “Triazolopyridine compounds and uses thereof” (Novartis AG, priority 2016, dated 2020)
